Reference: PubChem BioAssay AID248 (DTP/NCI, 2004)
“And” between values parts separate entries of the source, which are not always exact repeats. Equal entries are not always repeated. Toxic doses and inconclusive results are not listed. No stated cut-off is given here; in the data, active means T/C of 150% or more; inactive means T/C below 125%.

Test system: L1210 leukemia ip in BDF1 mice, survival T/C
Experiment: NCI In Vivo Anticancer Drug Screen. Data for tumor model L1210 Leukemia (intraperitoneal) in B6D2F1 (BDF1) mice
Conditions: endpoint: mean survival time, higher = longer survival
Procedure, shortened: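 Tumor was transplanted into mice, which were then dosed with test compound or vehicle alone. Survival was recorded for each group, and the treated figure was expressed relative to the control figure.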

[1] = dose: 100.0 mg/kg/injection, schedule: Q01DX001 (ip), vehicle: saline
[2] = dose: 200.0 mg/kg/injection, schedule: Q01DX001 (ip), vehicle: saline
[3] = dose: 50.0 mg/kg/injection, schedule: Q01DX009 (ip), vehicle: saline
[4] = dose: 100.0 mg/kg/injection, schedule: Q01DX009 (ip), vehicle: saline
[5] = dose: 200.0 mg/kg/injection, schedule: Q01DX009 (ip), vehicle: saline
[6] = dose: 50.0 mg/kg/injection, schedule: Q01DX001 (ip), vehicle: saline
[7] = dose: 400.0 mg/kg/injection, schedule: Q01DX001 (ip), vehicle: saline
[8] = dose: 100.0 mg/kg/injection, schedule: Q04DX003 (ip), vehicle: saline with Tween-80
[9] = dose: 200.0 mg/kg/injection, schedule: Q04DX003 (ip), vehicle: saline with Tween-80
[10] = dose: 400.0 mg/kg/injection, schedule: Q04DX003 (ip), vehicle: saline with Tween-80
[11] = dose: 100.0 mg/kg/injection, schedule: Q01DX009 (ip), vehicle: saline with Tween-80
[12] = dose: 100.0 mg/kg/injection, schedule: Q04DX003 (ip), vehicle: saline
[13] = dose: 200.0 mg/kg/injection, schedule: Q01DX009 (ip), vehicle: saline with Tween-80
[14] = dose: 200.0 mg/kg/injection, schedule: Q04DX003 (ip), vehicle: saline
[15] = dose: 400.0 mg/kg/injection, schedule: Q01DX009 (ip), vehicle: saline with Tween-80

Measured: T/C

CC(CCc1ccccc1)N(C)C(=O)CNC(=O)CN1C(=O)c2ccccc2C1=O (stereo unspecified)
inactive: [1] 96 % of control | [2] 92 % of control

COc1ccc(/C=C(/C(=O)c2ccc(OCCN3CCCC3)cc2)c2ccccc2)cc1OC
inactive: dose: 100.0 mg/kg/injection, schedule: Q04DX003 (sc), vehicle: olive oil, sesame oil, peanut oil 101 % of control | dose: 200.0 mg/kg/injection, schedule: Q04DX003 (sc), vehicle: olive oil, sesame oil, peanut oil 98 % of control | dose: 400.0 mg/kg/injection, schedule: Q04DX003 (sc), vehicle: olive oil, sesame oil, peanut oil 97 % of control

CS(=O)(=O)c1ccccc1C(=O)O
inactive: [3] 93 % of control | dose: 50.0 mg/kg/injection, schedule: Q04DX003 (ip), vehicle: acetone 105 % of control | dose: 100.0 mg/kg/injection, schedule: Q01DX001 (ip), vehicle: acetone 97 % of control | [4] 98 % of control | dose: 100.0 mg/kg/injection, schedule: Q04DX003 (ip), vehicle: acetone 105 % of control | dose: 200.0 mg/kg/injection, schedule: Q01DX001 (ip), vehicle: acetone 101 % of control | [5] 98 % of control | dose: 200.0 mg/kg/injection, schedule: Q04DX003 (ip), vehicle: acetone 103 % of control

C[N+](C)(C)CCCBr
inactive: dose: 10.0 mg/kg/injection, schedule: Q01DX001 (ip), vehicle: saline 112 % of control | dose: 20.0 mg/kg/injection, schedule: Q01DX001 (ip), vehicle: saline 89 % of control

CCN(CC)C(=O)C1CCCCC1C (stereo unspecified)
inactive: dose: 100.0 mg/kg/injection, schedule: Q04DX002 (ip), vehicle: saline 111 % of control | dose: 200.0 mg/kg/injection, schedule: Q04DX002 (ip), vehicle: saline 105 % of control

NC(CC[Se]CC(N)C(=O)O)C(=O)O (stereo unspecified)
inactive: dose: 0.5 mg/kg/injection, schedule: Q01DX009 (ip), vehicle: acetone 110 % of control | dose: 1.0 mg/kg/injection, schedule: Q01DX009 (ip), vehicle: acetone 103 % of control | dose: 2.0 mg/kg/injection, schedule: Q01DX009 (ip), vehicle: acetone 95 % of control | dose: 4.0 mg/kg/injection, schedule: Q01DX009 (ip), vehicle: acetone 108 % of control

O=C(Cc1ccc2c(c1)OCO2)c1cn(C(=O)Cc2ccc3c(c2)OCO3)c2ccccc12
inactive: [6] 108 % of control | [1] 102 % of control | [2] 93 % of control | [7] 96 % of control

COc1nc(=O)n(C2CCCO2)cc1C (stereo unspecified)
inactive: [6] 95 % of control | [1] 95 % of control | [2] 104 % of control | [7] 98 % of control

CCOC(=O)C(C(C)=O)C(C)=O
inactive: [6] 101 % of control | [1] 107 % of control | [2] 97 % of control | [7] 97 % of control

O=C1c2ccccc2C(=O)N1Cc1ccccc1
inactive: [8] 92 % of control | [9] 100 % of control | [10] 96 % of control

COC(=O)c1ccccc1NC(=O)Nc1ccccc1F
inactive: dose: 50.0 mg/kg/injection, schedule: Q01DX009 (ip), vehicle: Klucel (hydroxypropylcellulose) (HPC) 90 % of control | dose: 100.0 mg/kg/injection, schedule: Q01DX009 (ip), vehicle: Klucel (hydroxypropylcellulose) (HPC) 96 % of control | dose: 200.0 mg/kg/injection, schedule: Q01DX009 (ip), vehicle: Klucel (hydroxypropylcellulose) (HPC) 93 % of control

CC1(C)COC(CC2CCCCC2)=N1
inactive: dose: 25.0 mg/kg/injection, schedule: Q01DX009 (ip), vehicle: saline with Tween-80 105 % of control | dose: 50.0 mg/kg/injection, schedule: Q01DX009 (ip), vehicle: saline with Tween-80 102 % of control | dose: 50.0 mg/kg/injection, schedule: Q04DX003 (ip), vehicle: saline 94 % of control | [11] 102 % of control | [12] 91 % of control | [13] 96 % of control | [14] 86 % of control

Clc1nc(Cl)c(Nc2ccn[nH]2)nc1Cl
inactive: [11] 91 % of control | [13] 86 % of control | [15] 94 % of control

CN/N=C/c1ccc(O)c(OC)c1
inactive: [8] 95 % of control | [9] 90 % of control | [10] 91 % of control

O=C(N/N=C\c1cccc([N+](=O)[O-])c1)N/N=C/c1cccc([N+](=O)[O-])c1
inactive: dose: 6.25 mg/kg/injection, schedule: Q04DX003 (ip), vehicle: saline with Tween-80 92 % of control | dose: 12.5 mg/kg/injection, schedule: Q04DX003 (ip), vehicle: saline with Tween-80 97 % of control | dose: 25.0 mg/kg/injection, schedule: Q04DX003 (ip), vehicle: saline with Tween-80 87 % of control

NC(Cc1ccccc1)c1ccccc1 (stereo unspecified) (tested in a mixture with another compound)
inactive: [12] 89 % of control and 95 % of control | [14] 89 % of control

CC1CC(C)(C)N=C(CCC[N+](=O)[O-])O1 (stereo unspecified)
inactive: dose: 200.0 mg/kg/injection, schedule: Q04DX003 (ip), vehicle: other 103 % of control | dose: 400.0 mg/kg/injection, schedule: Q04DX003 (ip), vehicle: other 88 % of control

CCC1=C(C)C(=O)C2CCCCC2C1=O (stereo unspecified)
inactive: dose: 100.0 mg/kg/injection, schedule: Q01DX001 (ip), vehicle: Klucel (hydroxypropylcellulose) (HPC) 105 % of control | dose: 100.0 mg/kg/injection, schedule: Q01DX009 (ip), vehicle: saline sonified 95 % of control | dose: 200.0 mg/kg/injection, schedule: Q01DX001 (ip), vehicle: Klucel (hydroxypropylcellulose) (HPC) 111 % of control | dose: 200.0 mg/kg/injection, schedule: Q01DX009 (ip), vehicle: saline sonified 97 % of control | dose: 400.0 mg/kg/injection, schedule: Q01DX001 (ip), vehicle: Klucel (hydroxypropylcellulose) (HPC) 96 % of control | dose: 400.0 mg/kg/injection, schedule: Q01DX009 (ip), vehicle: saline sonified 92 % of control

O=C1/C(=C\c2cccc3ccccc23)CS(=O)(=O)C/C1=C/c1cccc2ccccc12
inactive: [1] 95 % of control | [2] 94 % of control | [7] 94 % of control

S=c1cc(-c2ccc(Cl)cc2)ss1
inactive: [3] 93 % of control | [4] 93 % of control and 90 % of control | [12] 92 % of control | [5] 95 % of control and 90 % of control | [14] 100 % of control | dose: 300.0 mg/kg/injection, schedule: Q01DX009 (ip), vehicle: saline 95 % of control | dose: 400.0 mg/kg/injection, schedule: Q01DX009 (ip), vehicle: saline 95 % of control

C(=C/c1ccccn1)/c1ccccc1
inactive: dose: 100.0 mg/kg/injection, schedule: Q04DX002 (ip), vehicle: Klucel (hydroxypropylcellulose) (HPC) 100 % of control | dose: 200.0 mg/kg/injection, schedule: Q04DX002 (ip), vehicle: Klucel (hydroxypropylcellulose) (HPC) 103 % of control | dose: 400.0 mg/kg/injection, schedule: Q04DX002 (ip), vehicle: Klucel (hydroxypropylcellulose) (HPC) 122 % of control

O=C(O)/C=C/C(=O)NCCNC(=O)/C=C/C(=O)O
inactive: dose: 100.0 mg/kg/injection, schedule: Q04DX003 (ip), vehicle: Klucel (hydroxypropylcellulose) (HPC) 96 % of control | dose: 200.0 mg/kg/injection, schedule: Q04DX003 (ip), vehicle: Klucel (hydroxypropylcellulose) (HPC) 93 % of control | dose: 400.0 mg/kg/injection, schedule: Q04DX003 (ip), vehicle: Klucel (hydroxypropylcellulose) (HPC) 96 % of control

CCOC(=O)Nc1cc(N)c(N)c(NC(c2ccccc2)c2ccccc2)n1
inactive: dose: 100.0 mg/kg/injection, schedule: Q01DX001 (ip), vehicle: other 102 % of control | dose: 200.0 mg/kg/injection, schedule: Q01DX001 (ip), vehicle: other 104 % of control | dose: 400.0 mg/kg/injection, schedule: Q01DX001 (ip), vehicle: other 100 % of control

O=C(N/N=C/c1ccccc1O)c1cc2ccccc2cc1O
inactive: [11] 91 % of control | [13] 86 % of control | [15] 90 % of control

CCCC(C)(Cl)C(=O)Nc1cccc(OC(=O)NC)c1 (stereo unspecified)
inactive: [8] 92 % of control | [9] 90 % of control | [10] 90 % of control

O=C(CN(Cc1ccccc1)Cc1ccccc1)c1ccccc1
inactive: dose: 100.0 mg/kg/injection, schedule: Q04DX003 (ip), vehicle: DMSO 103 % of control

S=C(N/N=C/C(c1ccccc1)c1ccccc1)Nc1ccccc1
inactive: dose: 100.0 mg/kg/injection, schedule: Q01DX001 (ip), vehicle: saline with Tween-80 95 % of control | [11] 86 % of control | dose: 200.0 mg/kg/injection, schedule: Q01DX001 (ip), vehicle: saline with Tween-80 102 % of control | dose: 400.0 mg/kg/injection, schedule: Q01DX001 (ip), vehicle: saline with Tween-80 98 % of control | [15] 86 % of control
